Columns and labels:
[1] = system: ATM-Deficient Colorectal Cancer LoVo Cell Lines; assay: In vitro anti-proliferation assay (ATPlite luminescence); assay type: cell-based; details: Homo sapiens; LoVo cells; about 72 hours; 5% FBS
Procedure: Cell antiproliferation was assayed by PerkinElmer ATPlite™ Luminescence Assay System. Briefly, the various test cancer cell lines were plated at a density of about 1×10^4 cells per well in Costar 96-well plates, and were incubated with different concentrations of compounds for about 72 hours in medium supplemented with 5% FBS. One lyophilized substrate solution vial was then reconstituted by adding 5 mL of substrate buffer solution, and was agitated gently until the solution was homogeneous. About 50 μL of mammalian cell lysis solution was added to 100 μL of cell suspension per well of a microplate, and the plate was shaken for about five minutes in an orbital shaker at ˜700 rpm. This procedure was used to lyse the cells and to stabilize the ATP. Next, 50 μL substrate solution was added to the wells and microplate was shaken for five minutes in an orbital shaker at ˜700 rpm. Finally, the luminescence was measured by a PerkinElmer TopCount® Microplate Scintillation Counter. Such assays, carried out with a range of doses of test compounds, allowed the determination of the cellular anti-antiproliferative IC50 of the compounds of the present invention. The following table lists the IC50 values of several cancer cell lines (5% FBS) for certain compounds of the invention.

ATR = ATR (Homo sapiens (Human), UniProt Q13535); assay: Enzyme ATR in vitro enzyme assay (ELISA, phospho-Ser15 p53 substrate); assay type: biochemical; details: ATR immunoprecipitated from HeLa nuclear extract; GST-p53N66 substrate; ATP 3 μM; 37° C.
Procedure: ATR for use in the in vitro enzyme assay was obtained from HeLa nuclear extract (CIL Biotech, Mons, Belgium) by immunoprecipitation with rabbit polyclonal antiserum raised to amino acids 400-480 of ATR (Tibbetts R S et al, 1999, Genes Dev. 13:152-157) contained in the following buffer (25 mM HEPES (pH7.4), 2 mM MgCl2, 250 mM NaCl, 0.5 mM EDTA, 0.1 mM Na3V04, 10% v/v glycerol, and 0.01% v/v Tween 20). ATR-antibody complexes were isolated from nuclear extract by incubating with protein A-Sepharose beads (Sigma, #P3476) for 1 hour and then through centrifugation to recover the beads. In the well of a 96-well plate, […] Sepharose beads were incubated with 1 μg of substrate glutathione S-transferase-p53N66 (NH2-terminal 66 amino acids of p53 fused to glutathione ^-transferase was expressed in E. coli) in ATR assay buffer (50 mM HEPES (pH 7.4), 150 mM NaCl, 6 mM MgCl2, 4 mM MnCl2, 0.1 mM Na3V04, 0.1 mM DTT, and 10% (v/v) glycerol) at 37° C. in the presence or absence of inhibitor. After 10 minutes with gentle shaking, ATP was added to a final concentration of 3 μM and the reaction continued at 37° C. for an additional 1 hour. The reaction was stopped by addition of IOOμí PBS and the reaction was transferred to a white opaque glutathione coated 96-well plate (NUNC #436033) and incubated overnight at 4° C. This plate was then washed with PBS/0.05%>(v/v) Tween 20, blotted dry, and analyzed by a standard ELISA (Enzyme-Linked Immunosorbent Assay) technique with a phospho-serine 15 p53 (16G78) antibody (Cell Signaling Technology, #9286). The detection of phosphorylated glutathione S-transferase-pSSNee substrate was performed in combination with a goat anti-mouse horseradish peroxidase-conjugated secondary antibody (Pierce, #31430). Enhanced chemiluminescence solution (NEN, Boston, Mass.) was used to produce a signal and chemiluminescent detection was carried out via a TopCount (Packard, Meriden, Conn.) plate reader.

Mice PK study = assay type: in vivo; details: CD-1 mouse; oral dosing po, 10 mg/kg; plasma
Procedure: The pharmacokinetics of compounds were evaluated in CD-1 mouse via Intravenous and Oral Administration. The IV dose was administered as a slow bolus in the Jugular vein, and oral doses were administered by gavage. The formulation for IV dosing was 5% DMSO in 20% HPBCD in water, and the PO formulation was 2.5% DMSO, 10% EtOH, 20% Cremphor EL, 67.5% D5W. The PK time point for the IV arm was 5, 15, 30 min, 1, 2, 4, 6, 8, 12, 24 hours post dose, and for PO arm was 15, 30 min, 1, 2, 4, 6, 8, 12, 24 hours post dose. Approximately 0.03 mL blood was collected at each time point. Blood of each sample was transferred into plastic micro centrifuge tubes containing EDTA-K2 and collect plasma within 15 min by centrifugation at 4000 g for 5 minutes in a 4° C. centrifuge. Plasma samples were stored in polypropylene tubes. The samples were stored in a freezer at −75±15° C. prior to analysis. Concentrations of compounds in the plasma samples were analyzed using a LC-MS/MS method. WinNonlin (Phoenix™, version 6.1) or other similar software was used for pharmacokinetic calculations. The following pharmacokinetic parameters were calculated, whenever possible from the plasma concentration versus time data: IV administration: C0, CL, Vd, T1/2, AUCinf, AUClast, MRT, Number of Points for Regression; PO administration: Cmax, Tmax, T1/2, AUCinf, AUClast, F %, Number of Points for Regression. […]

Sequence of ATR (Q13535 whole entry, the tested form may be a part): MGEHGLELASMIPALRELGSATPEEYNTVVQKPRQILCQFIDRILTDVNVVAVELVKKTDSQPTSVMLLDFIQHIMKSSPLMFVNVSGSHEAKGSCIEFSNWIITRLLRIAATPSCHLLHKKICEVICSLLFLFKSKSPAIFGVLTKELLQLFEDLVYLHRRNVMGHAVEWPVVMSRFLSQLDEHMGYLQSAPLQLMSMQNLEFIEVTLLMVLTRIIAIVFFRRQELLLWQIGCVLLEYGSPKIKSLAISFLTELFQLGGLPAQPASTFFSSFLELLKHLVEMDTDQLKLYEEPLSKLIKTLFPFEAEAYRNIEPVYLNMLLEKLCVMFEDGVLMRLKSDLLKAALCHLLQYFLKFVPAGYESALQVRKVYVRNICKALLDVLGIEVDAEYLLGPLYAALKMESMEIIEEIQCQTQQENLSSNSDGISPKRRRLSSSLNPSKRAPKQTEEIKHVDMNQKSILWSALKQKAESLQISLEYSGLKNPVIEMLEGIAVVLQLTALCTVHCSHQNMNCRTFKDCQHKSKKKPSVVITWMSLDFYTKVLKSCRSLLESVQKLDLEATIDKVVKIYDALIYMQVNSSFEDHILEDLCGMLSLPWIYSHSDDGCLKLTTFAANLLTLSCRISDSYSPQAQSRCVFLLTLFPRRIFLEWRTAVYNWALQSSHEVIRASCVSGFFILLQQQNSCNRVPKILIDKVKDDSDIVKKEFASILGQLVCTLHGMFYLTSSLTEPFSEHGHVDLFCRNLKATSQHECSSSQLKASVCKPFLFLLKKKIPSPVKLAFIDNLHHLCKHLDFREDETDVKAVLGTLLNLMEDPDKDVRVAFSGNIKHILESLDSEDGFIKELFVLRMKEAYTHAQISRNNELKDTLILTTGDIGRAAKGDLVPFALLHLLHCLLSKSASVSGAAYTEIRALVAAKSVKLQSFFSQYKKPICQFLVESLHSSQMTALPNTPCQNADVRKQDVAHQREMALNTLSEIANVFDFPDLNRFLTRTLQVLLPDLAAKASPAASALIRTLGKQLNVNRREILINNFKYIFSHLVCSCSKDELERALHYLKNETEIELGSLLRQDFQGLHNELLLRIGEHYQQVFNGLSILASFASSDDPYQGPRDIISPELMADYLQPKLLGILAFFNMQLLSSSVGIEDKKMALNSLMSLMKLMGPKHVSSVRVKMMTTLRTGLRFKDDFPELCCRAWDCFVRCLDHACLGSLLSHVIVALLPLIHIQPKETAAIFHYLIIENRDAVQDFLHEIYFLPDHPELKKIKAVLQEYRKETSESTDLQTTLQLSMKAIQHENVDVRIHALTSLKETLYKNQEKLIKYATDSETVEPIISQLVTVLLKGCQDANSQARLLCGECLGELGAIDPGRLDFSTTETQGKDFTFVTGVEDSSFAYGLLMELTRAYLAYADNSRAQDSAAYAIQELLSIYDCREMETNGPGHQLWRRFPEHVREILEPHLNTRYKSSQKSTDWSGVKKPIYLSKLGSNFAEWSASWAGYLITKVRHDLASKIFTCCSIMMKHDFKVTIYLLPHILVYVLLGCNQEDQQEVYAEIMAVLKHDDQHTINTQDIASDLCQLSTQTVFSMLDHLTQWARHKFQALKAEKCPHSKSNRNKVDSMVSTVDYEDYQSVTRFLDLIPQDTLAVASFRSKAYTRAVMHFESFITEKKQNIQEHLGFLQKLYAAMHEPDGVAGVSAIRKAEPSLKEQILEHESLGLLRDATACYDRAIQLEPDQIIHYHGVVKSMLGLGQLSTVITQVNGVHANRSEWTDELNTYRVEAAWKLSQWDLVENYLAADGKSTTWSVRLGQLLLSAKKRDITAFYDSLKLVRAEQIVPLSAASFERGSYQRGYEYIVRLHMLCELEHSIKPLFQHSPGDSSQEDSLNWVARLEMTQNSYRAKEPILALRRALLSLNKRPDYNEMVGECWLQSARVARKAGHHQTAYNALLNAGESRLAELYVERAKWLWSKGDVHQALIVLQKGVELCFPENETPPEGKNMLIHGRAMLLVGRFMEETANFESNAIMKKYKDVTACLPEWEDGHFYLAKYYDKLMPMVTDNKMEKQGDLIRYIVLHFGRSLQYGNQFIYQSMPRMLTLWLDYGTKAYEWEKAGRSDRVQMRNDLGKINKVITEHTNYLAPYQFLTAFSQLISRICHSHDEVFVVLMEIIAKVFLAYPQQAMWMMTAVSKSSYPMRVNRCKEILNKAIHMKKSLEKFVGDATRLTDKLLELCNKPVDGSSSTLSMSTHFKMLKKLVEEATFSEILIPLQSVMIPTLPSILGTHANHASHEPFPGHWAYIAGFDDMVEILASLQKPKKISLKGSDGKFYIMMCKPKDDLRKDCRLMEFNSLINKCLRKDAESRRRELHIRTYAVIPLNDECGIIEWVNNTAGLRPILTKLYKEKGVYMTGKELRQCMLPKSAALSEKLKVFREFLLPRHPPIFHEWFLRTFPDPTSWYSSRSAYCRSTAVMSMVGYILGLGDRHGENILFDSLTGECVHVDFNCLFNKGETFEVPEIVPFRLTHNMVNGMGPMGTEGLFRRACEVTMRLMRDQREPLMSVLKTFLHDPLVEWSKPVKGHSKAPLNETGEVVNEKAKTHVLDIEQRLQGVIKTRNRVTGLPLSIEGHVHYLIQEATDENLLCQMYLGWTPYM
Sequence of ATR (Q8WXE1 whole entry partner, the tested form may be a part): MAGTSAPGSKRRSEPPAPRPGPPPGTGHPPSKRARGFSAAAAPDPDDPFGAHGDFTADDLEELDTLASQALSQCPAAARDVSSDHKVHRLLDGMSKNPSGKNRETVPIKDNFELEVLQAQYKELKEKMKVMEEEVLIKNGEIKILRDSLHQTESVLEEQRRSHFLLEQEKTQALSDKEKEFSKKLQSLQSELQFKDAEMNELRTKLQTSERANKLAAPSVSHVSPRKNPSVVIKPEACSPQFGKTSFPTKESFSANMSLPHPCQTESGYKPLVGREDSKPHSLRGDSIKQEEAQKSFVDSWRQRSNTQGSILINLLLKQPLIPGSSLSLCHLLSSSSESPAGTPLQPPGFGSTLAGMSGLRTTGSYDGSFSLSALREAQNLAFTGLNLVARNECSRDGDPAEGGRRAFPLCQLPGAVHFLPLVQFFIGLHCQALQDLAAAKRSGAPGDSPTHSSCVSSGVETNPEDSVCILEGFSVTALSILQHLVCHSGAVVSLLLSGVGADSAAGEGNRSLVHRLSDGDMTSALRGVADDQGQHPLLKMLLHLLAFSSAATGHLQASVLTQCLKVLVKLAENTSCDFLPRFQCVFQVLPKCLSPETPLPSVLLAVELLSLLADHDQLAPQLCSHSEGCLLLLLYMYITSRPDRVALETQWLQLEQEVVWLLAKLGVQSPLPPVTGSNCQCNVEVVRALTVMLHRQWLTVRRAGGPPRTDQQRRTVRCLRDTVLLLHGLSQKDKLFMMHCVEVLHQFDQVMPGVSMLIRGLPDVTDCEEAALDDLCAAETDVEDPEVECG

| SMILES | IC50 [1] [nM] | IC50 (ATR) [nM] | AUC(0-t) (Mice PK study) [ng·h/mL] |
| --- | --- | --- | --- |
| C[C@@H]1COCCN1c1cc(C(C)(C)C#N)nc(-c2ccnc3[nH]ccc23)n1 [CY-237, 2-methyl-2-[6-[(3R)-3-methylmorpholin-4-yl]-2-[1H-pyrrolo[2,3-b]pyridin-4-yl]pyrimidin-4-yl]propanenitrile] | 480 | < 3 | 4390 |
| C[C@@H]1COCCN1c1cc(C(C)(C)O)nc(-c2ccnc3[nH]ccc23)n1 [CY-212, 2-[6-[(3R)-3-methylmorpholin-4-yl]-2-[1H-pyrrolo[2,3-b]pyridin-4-yl]pyrimidin-4-yl]propan-2-ol] | – | < 3 | – |
| C[C@@H]1COCCN1c1cc(C(C)(O)C(F)(F)F)nc(-c2ccnc3[nH]ccc23)n1 (stereo partly drawn) [CY-257, 1,1,1-trifluoro-2-[6-[(3R)-3-methylmorpholin-4-yl]-2-[1H-pyrrolo[2,3-b]pyridin-4-yl]pyrimidin-4-yl]propan-2-ol] | 830 | < 3 | – |
| [2H]C([2H])([2H])N=S(C)(=O)C1(c2cc(N3CCOC[C@H]3C)nc(-c3ccnc4[nH]ccc34)n2)CC1 (stereo partly drawn) [CY-209, (2H3)methyl[methyl(1-[6-[(3R)-3-methylmorpholin-4-yl]-2-[1H-pyrrolo[2,3-b]pyridin-4-yl]pyrimidin-4-yl]cyclopropyl)oxo-lambda6-sulfanylidene]amine] | – | < 3 | – |
| CN=S(C)(=O)C1(c2cc(N3CCOC[C@H]3C)nc(-c3ccnc4[nH]ccc34)n2)CC1 (stereo partly drawn) [CY-200-1, Methyl[methyl(1-[6-[(3R)-3-methylmorpholin-4-yl]-2-[1H-pyrrolo[2,3-b]pyridin-4-yl]pyrimidin-4-yl]cyclopropyl)oxo-lambda-sulfanylidene]amine] | – | < 3 | – |

Next, values leading:

| IC50 [1] [nM] | IC50 (ATR) [nM] | AUC(0-t) (Mice PK study) [ng·h/mL] | SMILES |
| --- | --- | --- | --- |
| 800 | – | 3100 | C[C@@H]1COCCN1c1cc(C2([S@](C)(=N)=O)CC2)nc(-c2cc[nH]c3nccc2-3)n1 [AZD-6738, reference compound] |
| 510 | < 3 | – | C[C@@H]1COCCN1c1cc(NCC2CC(F)(F)C2)nc(-c2ccnc3[nH]ccc23)n1 [CY-249, N-[(3,3-difluorocyclobutyl)methyl]-6-[(3R)-3-methylmorpholin-4-yl]-2-[1H-pyrrolo[2,3-b]pyridin-4-yl]pyrimidin-4-amine] |

From patent publication US11236089B2, “Substituted pyrrolopyridines as ATR inhibitors” (BlueValley Pharmaceutical LLC, priority 2017, dated 2022)
